In PMC10327353 (Breast Cancer Research : BCR, 2023):

Test system: BT474C1-Luci Mono1 LM xenograft
Assay: LM (leptomeningeal metastasis) BT474C1-Luci Mono1 xenograft model
Format: in vivo, nude mice
Method: The LM model was generated by implanting 10 µl of cell suspension containing 1 × 10^4 BT474C1-Luci Mono1 cells through cisterna magna into each mouse under anaesthesia following similar procedures as described in the literature (31). 17β- ESTRADIOL (90-day release 0.36 mg/pellet) were injected subcutaneously 24 hrs before cell inoculation. Under anaesthesia, mice were placed in the prone position with their neck draped over a cylinder. The head was immobilized with the thumb and mid-finger, with the index finger palpating the space between the occiput and C1. BT474c1-Luci Mono1 cell suspension at 10 µl containing 0.01 million cells were injected intracisternally. When the bioluminescent signal reached > 5 × 10^6 photon/s, animals were randomized for treatment. […]
In both BM and LM models, the day of randomization was defined as Day 0 and the treatment was started one day after randomization. The bioluminescence signals and body weight of the mice were measured once weekly. Relative bioluminescence intensity on a specific day was calculated by dividing the bioluminescence intensity on that day by the bioluminescence intensity on Day 0. The tumour growth inhibition (TGI) was calculated by formula: TGI (%) = (1-(relative bioluminescence intensity of treated group)/(relative bioluminescence intensity of control group)) x 100.Establishment of SC model

Question: Which TGI (100 mg/kg twice daily) does the source give for `COc1cc(O[C@H]2CCN(C)CC2(F)F)c2c(Nc3ccc(Oc4ccn5ncnc5c4)c(C)c3)ncnc2c1` [DZD1516] here?
Answer: 57%

Question: And the TGI (150 mg/kg twice daily)?
Answer: 81%
